{"source": "patent US20240199555A1", "about": "“APPLICATIONS OF BIASED LIGANDS OF THE SEROTONIN 5-HT7 RECEPTOR FOR THE TREATMENT OF PAIN, MULTIPLE SCLEROSIS AND THE CONTROL OF THERMOREGULATION” (Centre National de la Recherche Scientifique, priority 2021, published 2024)", "key": {"h5-HT7R": {"molecular_target": "h5-HT7R (Homo sapiens (Human), UniProt P34969)", "sequence (P34969 1-432)": "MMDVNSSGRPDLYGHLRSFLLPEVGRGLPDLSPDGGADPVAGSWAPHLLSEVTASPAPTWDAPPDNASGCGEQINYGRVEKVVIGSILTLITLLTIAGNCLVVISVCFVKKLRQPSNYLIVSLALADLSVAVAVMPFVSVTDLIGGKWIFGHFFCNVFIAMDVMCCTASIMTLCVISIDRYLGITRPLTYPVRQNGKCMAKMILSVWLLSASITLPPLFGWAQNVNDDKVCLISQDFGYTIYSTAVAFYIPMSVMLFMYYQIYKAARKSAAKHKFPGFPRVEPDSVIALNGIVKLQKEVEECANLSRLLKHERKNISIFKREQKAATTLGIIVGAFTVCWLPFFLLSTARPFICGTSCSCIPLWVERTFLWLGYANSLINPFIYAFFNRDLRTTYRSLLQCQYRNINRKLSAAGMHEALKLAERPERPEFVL", "test": "ERK1/2 and c-SRC phosphorylation by western blot in HEK-293 cells stably expressing h5-HT7R", "format": "cell-based", "settings": "10 μM of ligand or increasing concentrations, western blot", "experimental": "(A, B, C, D, E, F) Time course of activation of ERK1/2 after stimulation of HEK-293 cells stably expressing h5-HT7R with various 5-HT7R ligands used at 10 μM. The cells were stimulated for the indicated periods and assayed for detection of phospho ERK1/2 by western blot analysis. […] Representative blots of three independent experiments are illustrated. The histogram on the right of each panel represents the results of densitometric analyses of three independent experiments. Data are means±SEM. * p<0.05; ** p<0.01; *** p<0.001 versus non stimulated cells (NS).\nHEK-293 cells stably expressing h5-HT7R were stimulated with increasing concentrations of 5-CT or Serodolin for 7 minutes. Cells were lysed, and western blot analysis was performed. Representative Western blots from three independent experiments were shown in A-C. Quantification was performed by densitometric analyses from three independent experiments. Analyzed data were plotted versus log concentration for each compounds (A; B) or as bar graph (C) on the right panel.\nTime course of activation of ERK1/2 after stimulation of HEK-293 cells stably expressing h5-HT7R with JLB060, a 5-HT7R ligand used at 10 μM. The cells were stimulated for the indicated periods and assayed for detection of phospho ERK1/2 by western blot analysis.\n(§1) Treated cells were washed twice with cold PBS and lysed on ice for 30 min in lysis buffer containing 50 mM Tris pH 7.5, 150 mM NaCl, 10 mM EDTA, 1% Triton X-100 and the protease inhibitor cocktail. Cell lysates were centrifuged at 10,000×g for 10 min. Supernatant was then solubilized in Laemmli buffer with 0.1% β-mercaptoethanol. Samples were resolved by electrophoresis on 10% SDS-PAGE, and transferred electrophoretically to polyvinylidene fluoride (PVDF) membranes (GE Healthcare Life Sciences). […] membranes were washed in Tris-buffered saline (TBS; pH 7.4) containing 0.1% Tween-20 (TBS-T; 0.1%) and blocked with 5% (w/v) dry milk TBS-T 0.1% for 30 min. […] Blots were probed with anti-arrestin, anti-Phospho-ERK or anti-ERK antibody (1:2000), anti Phospho-SRC, anti SRC antibody, anti-HA or anti-GFP or anti-actin antibodies. Horseradish-peroxidase-conjugated goat anti-rabbit, anti-mouse or anti-rat antibodies (1:33,000) were used as secondary antibodies. Immunoreactive bands were detected using the Dura detection kit. Protein quantification on blots was performed using Quantity One software (Biorad).\nas §1, with “12%” for “10%”, “with” for “with anti-arrestin,”, “anti-Phospho-ERK (1:2000)” for “anti-Phospho-ERK”, “anti-GAPDH” for “anti-ERK”, “(1:5000). […]” for “(1:2000), anti Phospho-SRC, anti SRC antibody, anti-HA or anti-GFP or anti-actin antibodies. Horseradish-peroxidase-conjugated goat anti-rabbit, anti-mouse or anti-rat antibodies (1:33,000) were used as secondary antibodies.”\nERK phosphorylation was monitored by western blotting after treatment of cells with 10 μM of ligands at different times ranging from 2 to 60 minutes."}, "Sprague-Dawley male rats": {"test_system": "Sprague-Dawley male rats", "test": "Formalin induced inflammatory pain model", "format": "in vivo", "settings": "single s.c., Serodolin 10 mg/kg, MOA51 1 mg/kg, morphine", "experimental": "FIG. 18: Effect of a single administration of Serodolin (AIC01) or MOA51 in the formalin test in rats. Effect of a single subcutaneous administration of Serodolin (AIC01) or MOA51 in the formalin test in rats. In this test, Sprague-Dawley male rats received unilateral injection of a 2.5% formalin solution (50 μl) into the plantar aspect of the hindpaw on testing day (i.e. D0). Control group received Vehicle (20% DMSO/5% Tween 80/NaCl). Serodolin was subcutaneously (sc) administrated at 10 mg/kg and MOA51 at 1 mg/kg. Positive control animals were treated with morphine (3 mg/kg, sc). Paw licking time was measured. Results are expressed as mean±s.e.m. Percentage are expressed as decreased as compared to the vehicle-treated group and represented as figure (B). ***: p<0.001 as compared to the vehicle-treated group, Bonferroni's test after significant Two-way Repeated Measures ANOVA. NS: Non-significant.\nSprague-Dawley male rats (n=10 rats per group) received unilateral injection of a 2.5% formalin solution (50 μl) into the plantar aspect of the hindpaw on testing day (i.e. D0). Experience was separated into 4 groups of animals. Formalin animals+vehicle-treated group; […]—Formalin animals+Sponsor's Serodolin (10 mg/kg), s.c.—Formalin animals+Sponsor's MOA51 (1 mg/kg), s.c.—Formalin animals+internal validator-treated group (Morphine at 4 mg/Kg, s.c.). Single subcutaneous administration of the Vehicle and Sponsor's Compound 30 min (or other timing depending on Sponsor's design) before formalin injection on testing day (i.e. D0)/Subcutaneous administration of Morphine 30 min before formalin injection on testing day (i.e. D0). Hindpaw licking time recorded in consecutive 5 minutes periods from 0 to 5 minutes (early phase) and 17 to 27 minutes (late phase) after formalin injection.\nWe evaluated the effect of Serodolin as well as MOA51 in rats in the formalin test, an acute and tonic pain model based on the use of a chemical stimulus. Subcutaneous injection of formalin into the right hindpaw produces a biphasic painful response of increasing and decreasing intensity for about 30 minutes after the injection. […] Although not significant, Serodolin, MOA51 and morphine have an inhibitory effect (−40%, −35% and −57% respectively) during the early phase."}, "mice": {"test_system": "mice", "test": "Acetic acid-induced writhing test", "format": "in vivo", "settings": "3 mg/kg, s.c., positive control", "experimental": "(§2) FIG. 9: Analgesic effect of Serodolin in the acetic acid-induced writhing test. In this test, nociception was induced by an intraperitoneally injection (ip) of 0.1 ml/10 g acid acetic solution (10 ml/kg) in peripheral origin. Serodolin at increasing dosage was administrated by oral (po), intravenous (iv) or subcutaneous (sc) route before acid acetic injection (upper panel). Positive control animals were pretreated morphine (3 mg/kg, sc) 10 minutes before acetic acid. Five minutes after i.p. injection of acetic acid the number of writhing was recorded for 10 minutes. Data mean±SEM of values obtained from a representative experiment (n=10 animals/group). ****p<0.0001 ***p<0.001 **p<0.01 *p<0.05 as compared with the control group (Vh).\nas §2, with “16:” for “9:”, “MOA51” for “Serodolin”, “i.p.injection” for “i.p. injection”, “animals/group).” for “animals/group). ****p<0.0001 ***p<0.001”, “**p<0.01” for “**p<0.01 *p<0.05”\nWrithing tests: Mice (25-35 g). Groups of mice (n=10) received by oral, subcutaneous or intravenous route Serodolin at different doses (0.1-10 mg/kg) one hour before intraperitoneally injection of 1% acetic acid in a volume of 10 ml/kg. Control group received vehicle (10 ml/kg, solution of 20% DMSO and 5% tween 80). The test was carried out 5 minutes later after acid acetic injection. The characteristic writhing responses have been observed individually and counted for 10 minutes.\nAnalgesic activity was first evaluated using the acetic acid abdominal constriction test (writhing test), a chemical model of visceral pain. We evaluated the dose-response effect of Serodolin following single oral, intravenous and subcutaneous administration of the compound one hour before injection of acetic acid.\nAnalgesic activity was evaluated using the acetic acid abdominal constriction test (writhing test), a chemical model of visceral pain. We evaluated the dose-response effect of MOA51 following single oral, intravenous and subcutaneous administration of the compound one hour before injection of acetic acid. MOA51 administered by the oral route induced statistically significant dose-dependent decreases in the number of writhings at and above the dose of 1 mg/kg. By the intravenous route, MOA51 induced dose-dependent decreases in the number of writhings at and above the dose of 0.1 mg/kg."}, "C57BL/6 mice": {"test_system": "C57BL/6 mice", "test": "Spared Nerve Injury (SNI) neuropathic pain model, Von Frey", "settings": "s.c.", "procedure": "Pregabalin, vehicle or compounds solutions are subcutaneously administrated for 8 consecutive days. • (A) Mechanical response threshold after the first administration (D+10). […] Positive control animals were treated with Pregabalin (5 mg/kg, sc). Statistical differences are indicated compared to vehicle group (Two-way RM ANOVA followed by Bonferroni post-hoc test: ***p<0.001, ** p<0.01, * p<0.05). […] Positive control animals were treated with Pregabalin (5 mg/kg, sc). Statistical differences are indicated compared to vehicle group (Two-way RM ANOVA followed by Bonferroni post-hoc test: ***p<0.001, ** p<0.01, * p<0.05). […] (Two-way RM ANOVA followed by Bonferroni post-hoc test: ***p<0.001, ** p<0.01, * p<0.05)\nMOA51 and Serodolin (AIC01) compounds were diluted in NDT solution (NaCl 0.9%—DMSO 20%—Tween80 5%). […] AIC01 was resuspended at 0.5 mg/mL and administrated at a ratio of 100 μl per 10 g (dose of 5 mg/kg).\nExperiment starts with 8 weeks old male C57B16J mice (from Charles River). Study was performed on 40 mice (2 mice were excluded during the study due to health guidelines) divided in 4 randomized groups. • Group A: s.c. injection at 5 mg/kg of pregabalin. • Group B: s.c. injection at 0.5 mg/kg of MOA51. • Group C: s.c. injection at 5 mg/kg of Serodolin (AIC01). • Group D: s.c. injection of NDT solution (referred as Vehicle hereafter).\nCompounds solutions, pregabalin and vehicle were subcutaneously administrated (100 μl/10 g) for 9 consecutive days, starting 10 days after surgery. Ligature and transection of the common peroneal and tibial distal branches of the sciatic nerve was made leaving the sural branch intact. 7 days post-surgery, a decrease of threshold response to Von Frey filaments of ipsilateral hind-paw was observed corresponding to neuropathic pain apparition (mechanical allodynia). Mechanical threshold response of mice were measured with calibrated Von Frey filaments using the up/down method. Experimenter was blind to mice treatment. Measures are performed as follow: one baseline measure before surgery, one measure at D+10, D+12, D+14, D+16 and D+18 before drug's administration, and 1 h, 2 h post-drug administration. A supplementary measure 4 h post-drug administration was performed at D+10 and D+18.\nTwo-way RM ANOVA (followed by Bonferroni post-hoc test) was used to analysed time course response at D+10 and D+18. Area under the curve was determined with the 1 h and 2 h post-drug administration measures to investigated tolerance of repeated administration of compounds"}, "[1]": {"molecular_target": "human 5-HT2Cedited receptor (Homo sapiens, UniProt P28335)", "sequence (P28335 33-458 limits assumed)": "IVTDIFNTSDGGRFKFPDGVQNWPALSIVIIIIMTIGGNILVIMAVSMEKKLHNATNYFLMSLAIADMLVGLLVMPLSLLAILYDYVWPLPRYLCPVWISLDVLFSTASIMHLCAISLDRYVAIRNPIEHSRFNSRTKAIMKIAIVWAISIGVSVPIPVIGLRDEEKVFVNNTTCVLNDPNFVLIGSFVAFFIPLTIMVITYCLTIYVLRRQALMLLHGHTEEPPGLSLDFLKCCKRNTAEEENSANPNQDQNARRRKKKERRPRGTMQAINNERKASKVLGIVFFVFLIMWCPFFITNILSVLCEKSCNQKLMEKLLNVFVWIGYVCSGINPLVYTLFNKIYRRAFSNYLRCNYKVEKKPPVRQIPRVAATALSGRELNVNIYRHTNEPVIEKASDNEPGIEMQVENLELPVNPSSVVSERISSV", "test": "Radioligand binding competition, 5-HT2Cedited", "settings": "selectivity panel", "experimental": "(§3) FIG. 14: Testing of 8 molecules for radioligand binding competition activity on recombinant human 5-HT1A, 5-HT2A, 5-HT2Cedited, 5-HT6, 5-HT7 and D2(long) receptors using filtration binding assays.\n(§4) Radioligand Binding experiments were conducted with Epics Therapeutics membrane preparations. Receptor accession numbers, cellular background and reference compounds are shown in this table.\n(§5) The new compounds have been tested by radioligand binding competition activity at the human 5-HT1A (FAST-0500B), 5-HT2A (FAST-0505B), 5-HT2Cedited (FAST-0507B), 5-HT6 (FAST-0509B), 5-HT7a (FAST-05111B) and D2(long) (FAST-0101B) receptors at seven (7) concentrations, in duplicate. […] Reference values thus obtained for the test were compared to historical values obtained from the same receptor and used to validate the experimental session. For replicate determinations, the maximum variability tolerated in the test was of +/−20% around the average of the replicates.\n(§6) Dose-response data from test compounds were analyzed with XLfit (IDBS) software using nonlinear regression applied to a sigmoidal dose-response model and the following equation: • XL Fit fit Model 203: 4 Parameter Logistic Model • A: Bottom • B: TOP • C: LogEC50 • D: Hill"}, "human 5-HT2A receptor": {"molecular_target": "human 5-HT2A receptor (Homo sapiens (Human), UniProt P28223)", "sequence (P28223 whole entry)": "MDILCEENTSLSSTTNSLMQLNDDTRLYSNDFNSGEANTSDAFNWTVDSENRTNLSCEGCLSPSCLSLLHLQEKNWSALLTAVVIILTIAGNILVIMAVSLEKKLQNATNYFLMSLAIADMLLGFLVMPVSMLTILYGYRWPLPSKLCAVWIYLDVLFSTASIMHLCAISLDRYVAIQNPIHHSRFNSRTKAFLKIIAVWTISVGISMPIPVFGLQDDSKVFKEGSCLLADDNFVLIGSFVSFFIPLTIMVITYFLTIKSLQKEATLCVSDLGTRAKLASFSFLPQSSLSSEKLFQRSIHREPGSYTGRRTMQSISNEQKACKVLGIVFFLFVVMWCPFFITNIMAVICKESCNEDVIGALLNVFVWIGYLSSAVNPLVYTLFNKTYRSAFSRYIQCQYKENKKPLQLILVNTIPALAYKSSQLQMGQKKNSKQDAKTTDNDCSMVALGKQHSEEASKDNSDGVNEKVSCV", "test": "Radioligand binding competition, 5-HT2A", "settings": "selectivity panel", "experimental": "as §3, §4, §5, §6"}, "human 5-HT7a receptor": {"molecular_target": "human 5-HT7a receptor (Homo sapiens (Human), UniProt P34969)", "sequence (P34969 other isoform, or with tags, fused parts or gaps)": "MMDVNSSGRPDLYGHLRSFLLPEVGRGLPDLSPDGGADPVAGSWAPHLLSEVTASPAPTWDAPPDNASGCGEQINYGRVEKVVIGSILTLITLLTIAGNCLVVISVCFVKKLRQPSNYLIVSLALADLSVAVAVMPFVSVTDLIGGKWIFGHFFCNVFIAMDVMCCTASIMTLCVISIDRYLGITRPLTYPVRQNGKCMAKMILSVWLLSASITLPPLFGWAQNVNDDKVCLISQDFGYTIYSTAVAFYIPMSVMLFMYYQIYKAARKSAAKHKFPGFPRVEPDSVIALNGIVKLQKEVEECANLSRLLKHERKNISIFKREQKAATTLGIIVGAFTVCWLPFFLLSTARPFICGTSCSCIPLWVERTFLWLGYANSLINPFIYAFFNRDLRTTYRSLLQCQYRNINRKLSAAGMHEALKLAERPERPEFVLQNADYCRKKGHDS", "test": "Radioligand binding competition, filtration binding assay, 5-HT7a", "settings": "affinity on 5-HT7 receptor, table of new compounds", "experimental": "as §3, §4\nReference values thus obtained for the test were compared to historical values obtained from the same receptor and used to validate the experimental session. For replicate determinations, the maximum variability tolerated in the test was of +/−20% around the average of the replicates.\nas §6"}, "human 5-HT1A receptor": {"molecular_target": "human 5-HT1A receptor (Homo sapiens (Human), UniProt P08908)", "sequence (P08908 whole entry)": "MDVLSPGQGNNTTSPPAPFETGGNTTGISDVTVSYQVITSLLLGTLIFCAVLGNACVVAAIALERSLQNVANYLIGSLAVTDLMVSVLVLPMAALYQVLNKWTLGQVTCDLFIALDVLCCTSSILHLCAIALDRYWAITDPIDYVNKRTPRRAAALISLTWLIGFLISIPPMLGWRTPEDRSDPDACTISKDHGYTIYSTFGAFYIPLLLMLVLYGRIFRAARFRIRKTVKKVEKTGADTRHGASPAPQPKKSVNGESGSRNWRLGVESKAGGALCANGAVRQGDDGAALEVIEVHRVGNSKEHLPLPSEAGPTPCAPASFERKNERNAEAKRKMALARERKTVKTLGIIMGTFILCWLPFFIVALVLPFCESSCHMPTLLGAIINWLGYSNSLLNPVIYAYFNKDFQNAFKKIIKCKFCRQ", "test": "Radioligand binding competition, 5-HT1A", "settings": "selectivity panel", "experimental": "as §3, §4, §5, §6"}}, "note": "pIC50, pKi: −log10 of the molar value."}
{"smiles": "O=C1Nc2cccc3c2C1(CCCCN1CC=C(c2ccccc2)CC1)CCC3", "note": "(stereo not drawn) [DR4004, reference compound]", "values": [{"measurement": "induction of ERK phosphorylation", "setting": "h5-HT7R", "result": "none of them were able to induce ERK activation"}]}
{"smiles": "CN1CC[C@]23c4c5ccc(O)c4O[C@H]2[C@@H](O)C=C[C@H]3[C@H]1C5", "note": "[morphine, reference compound]", "values": [{"measurement": "inhibitory effect on paw licking, early phase", "setting": "Sprague-Dawley male rats; 0 to 5 minutes, not significant", "result": "−57", "unit": "%"}, {"measurement": "inhibition of licking, late phase", "setting": "Sprague-Dawley male rats; 17 to 27 minutes", "result": "−64", "unit": "%"}, {"measurement": "inhibition of the writhing assay response", "setting": "mice", "result": "full inhibition"}]}
{"smiles": "CC(C)C[C@H](CN)CC(=O)O", "note": "[Pregabalin, reference compound]", "values": [{"measurement": "tolerance after repetitive administration (AUC)", "setting": "C57BL/6 mice; 9 consecutive days", "result": "significant decrease of the analgesic effect"}, {"measurement": "mechanical response threshold vs vehicle", "setting": "C57BL/6 mice; first (D+10) and last (D+18) administration, 1 h and 2 h", "result": "significant increase of the mechanical response threshold"}]}
{"smiles": "O=c1[nH]c2ccccc2n1CCCCCN1CCCN(c2ccc(F)cc2)CC1", "note": "[JLB060]", "values": [{"measurement": "induction of ERK phosphorylation", "setting": "h5-HT7R", "result": "robustly induce ERK phosphorylation"}, {"measurement": "pIC50", "setting": "[1]; read-out: RLB 5-HT2Cedited IC50", "result": 6.04}, {"measurement": "pKi", "setting": "[1]; read-out: RLB 5-HT2Cedited Ki", "result": 6.83}, {"measurement": "pIC50", "setting": "human 5-HT2A receptor; read-out: RLB 5-HT2A IC50", "result": 6.86}, {"measurement": "pKi", "setting": "human 5-HT2A receptor; read-out: RLB 5-HT2A Ki", "result": 7.64}, {"measurement": "pIC50", "setting": "human 5-HT7a receptor", "result": 9.01}, {"measurement": "pKi", "setting": "human 5-HT7a receptor", "result": 9.16}, {"measurement": "pIC50", "setting": "human 5-HT1A receptor; read-out: RLB 5-HT1A IC50", "result": 6.07}, {"measurement": "pKi", "setting": "human 5-HT1A receptor; read-out: RLB 5-HT1A Ki", "result": 6.37}]}
